# Experimental data taken from patent publication US9085562B2, “6-alkyl-N-(pyridin-2-yl)-4-aryloxypicolinamide analogs as mGluR5 negative allosteric modulators and methods of making and using the same” (Vanderbilt University, priority 2011, dated 2015).
# Like-named read-outs stand apart in the source and are kept apart here.
# How the values were obtained:
# [1] = tested on: Marble Burying Activity in Mice; details: literature (Spooren 2000; Nicolas 2006); cited from earlier work
# [2] = tested on: N-methyl-D-aspartate (NMDA) receptor; details: at higher concentrations; cited from earlier work
# mGluR4 = mGluR4 (Homo sapiens, UniProt Q14833); details: cited from earlier work
# Sequence of mGluR4 (Q14833 33-912): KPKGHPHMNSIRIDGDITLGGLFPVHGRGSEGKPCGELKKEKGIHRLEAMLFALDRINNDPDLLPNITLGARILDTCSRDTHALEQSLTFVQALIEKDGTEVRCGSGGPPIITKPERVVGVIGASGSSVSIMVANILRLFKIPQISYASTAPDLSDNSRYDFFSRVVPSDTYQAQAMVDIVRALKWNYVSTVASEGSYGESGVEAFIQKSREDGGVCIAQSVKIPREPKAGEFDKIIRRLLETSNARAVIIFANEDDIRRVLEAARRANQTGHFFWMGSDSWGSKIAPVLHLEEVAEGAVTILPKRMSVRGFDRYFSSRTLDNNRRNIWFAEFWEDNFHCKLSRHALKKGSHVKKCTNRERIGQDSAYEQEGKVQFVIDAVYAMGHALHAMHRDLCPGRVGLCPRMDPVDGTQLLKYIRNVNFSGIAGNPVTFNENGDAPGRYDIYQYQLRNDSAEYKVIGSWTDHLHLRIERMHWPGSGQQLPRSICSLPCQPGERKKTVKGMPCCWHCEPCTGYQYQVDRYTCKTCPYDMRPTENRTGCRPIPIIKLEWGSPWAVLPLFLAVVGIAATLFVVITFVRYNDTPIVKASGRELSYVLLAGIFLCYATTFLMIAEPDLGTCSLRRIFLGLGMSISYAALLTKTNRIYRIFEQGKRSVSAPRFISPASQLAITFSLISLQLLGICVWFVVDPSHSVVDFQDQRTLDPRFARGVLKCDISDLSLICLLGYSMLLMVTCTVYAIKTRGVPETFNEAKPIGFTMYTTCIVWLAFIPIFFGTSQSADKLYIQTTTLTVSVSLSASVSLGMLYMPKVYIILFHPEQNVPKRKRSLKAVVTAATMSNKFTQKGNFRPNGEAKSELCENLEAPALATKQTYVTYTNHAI
# [3] = intravenous administration to rhesus monkeys; cited from earlier work
# cytochrome P450 1A2 = molecular target: T1, cytochrome P450 1A2 (Homo sapiens, UniProt P05177); details: cited from earlier work
# T1 sequence (P05177 1-516): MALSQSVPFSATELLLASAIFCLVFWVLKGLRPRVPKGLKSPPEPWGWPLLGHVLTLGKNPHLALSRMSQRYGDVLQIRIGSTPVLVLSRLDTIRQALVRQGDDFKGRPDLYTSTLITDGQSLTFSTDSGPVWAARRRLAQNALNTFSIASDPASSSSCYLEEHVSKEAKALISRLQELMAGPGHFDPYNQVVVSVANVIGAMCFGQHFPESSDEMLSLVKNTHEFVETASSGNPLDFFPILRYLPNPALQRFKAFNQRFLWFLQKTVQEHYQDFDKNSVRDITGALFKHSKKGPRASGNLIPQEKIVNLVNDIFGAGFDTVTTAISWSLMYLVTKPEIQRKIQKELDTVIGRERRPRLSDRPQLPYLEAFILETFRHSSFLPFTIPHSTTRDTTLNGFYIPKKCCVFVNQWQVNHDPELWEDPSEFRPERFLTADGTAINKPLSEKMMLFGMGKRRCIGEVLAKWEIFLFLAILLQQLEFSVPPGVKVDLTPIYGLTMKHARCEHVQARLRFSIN
# mGluR5 = molecular target: T2, mGluR5 (Rattus norvegicus, UniProt P31424); assay: mGluR5 IC50 / NAM profile of Tables 2 and 4; type: cell-based; details: Table 2, line under mGluR5 IC50
# T2 construct: expressed in transfected cells
# T2 sequence (P31424 21-1171 isoform P31424-2 limits assumed): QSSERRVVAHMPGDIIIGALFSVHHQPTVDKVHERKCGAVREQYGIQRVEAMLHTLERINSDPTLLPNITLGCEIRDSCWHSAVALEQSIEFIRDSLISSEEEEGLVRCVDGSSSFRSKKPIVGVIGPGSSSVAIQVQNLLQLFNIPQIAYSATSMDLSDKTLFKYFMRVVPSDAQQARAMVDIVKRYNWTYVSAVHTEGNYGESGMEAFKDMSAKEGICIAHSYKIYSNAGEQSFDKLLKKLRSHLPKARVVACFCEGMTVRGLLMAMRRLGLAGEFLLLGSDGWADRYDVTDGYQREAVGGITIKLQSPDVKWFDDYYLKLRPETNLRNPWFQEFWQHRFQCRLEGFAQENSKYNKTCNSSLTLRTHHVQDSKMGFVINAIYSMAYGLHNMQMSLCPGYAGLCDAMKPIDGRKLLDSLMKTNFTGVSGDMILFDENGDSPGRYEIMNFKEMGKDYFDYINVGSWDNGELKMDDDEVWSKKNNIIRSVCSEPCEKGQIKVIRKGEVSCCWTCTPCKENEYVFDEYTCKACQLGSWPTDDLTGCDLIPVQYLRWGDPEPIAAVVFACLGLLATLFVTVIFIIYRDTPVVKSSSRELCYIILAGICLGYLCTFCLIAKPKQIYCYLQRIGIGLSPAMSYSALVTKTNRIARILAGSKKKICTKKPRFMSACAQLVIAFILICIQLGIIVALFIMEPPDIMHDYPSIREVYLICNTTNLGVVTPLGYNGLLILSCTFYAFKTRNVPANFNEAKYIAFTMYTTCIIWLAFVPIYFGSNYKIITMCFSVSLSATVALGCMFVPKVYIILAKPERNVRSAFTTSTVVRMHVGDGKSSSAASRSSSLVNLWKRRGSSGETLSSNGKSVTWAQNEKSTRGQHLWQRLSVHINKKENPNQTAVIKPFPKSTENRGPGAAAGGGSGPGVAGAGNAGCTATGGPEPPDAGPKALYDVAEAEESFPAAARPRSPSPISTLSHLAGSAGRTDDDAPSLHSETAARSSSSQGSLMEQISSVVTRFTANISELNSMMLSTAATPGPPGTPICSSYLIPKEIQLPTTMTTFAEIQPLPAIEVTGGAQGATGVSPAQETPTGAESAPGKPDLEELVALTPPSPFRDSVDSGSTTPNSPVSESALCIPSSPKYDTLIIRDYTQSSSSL
# Experimental: Human embryonic kidney (HEK) cells transfected with rat or human mGluR5 were plated in clear bottom assay plates for assay in a Functional Drug Screening System (FDSS). The cells were loaded with a Ca2+-sensitive fluorescent dye (e.g., Fluo-4), and the plates were washed and placed in the FDSS instrument. Test compound was applied to cells 3 seconds after baseline readings were taken. Cells were incubated with the test compounds for 140 seconds and then stimulated with an EC20 concentration of an mGluR5 agonist (e.g., glutamate, 3,5-dihydroxyphenylglycine, or quisqualate); 60-80 seconds later an EC80 concentration of agonist was added and readings taken for an additional 40 seconds. Data were collected at 1 Hz. […] Concentration response curves were generated using a four parameter logistical equation.
# Permeability/efflux = type: in vitro ADME; details: Table 2, Permeability/efflux
# From the text: (§1) Additional physicochemical and pharmacological data are provided below in Tables 2-4 for Test Compounds 1 and 2 (Compounds […] and (2) as described herein).
# [4] = Solubility in SGF and FaSSIF; type: physicochemical
# From the text: as §1
# Human PPB = type: in vitro ADME
# From the text: as §1
# [5] = Mouse PO PK (plasma and brain concentration); type: in vivo; details: Mouse PO 10 mg/kg; for concentration at 0.25 h / concentration at 0.5 h / concentration at 1 h / concentration at 3 h: mouse, po, 10 mg/kg
# From the text: as §1
# Mouse BHB = type: in vitro ADME
# From the text: as §1
# [6] = SGF, pH 1.6, simulated gastric fluid
# [7] = brain, read-out: Brain Concentration
# [8] = brain, read-out: Free Brain Concentration
# [9] = brain, 3 h, read-out: Brain Concentration
# [10] = brain, 3 h, read-out: Free Brain Concentration
# [11] = plasma, read-out: Plasma Concentration
mGluR5 mode of action (mGluR5),Permeability (Permeability/efflux),efflux (Permeability/efflux),"solubility ([4]; FaSSIF, pH 6.5, fassif) [µg/mL]","solubility [4, 6] [µg/mL]","Human PPB, % (Human PPB) [%]",Plasma Concentration (nM) ([5]; 1 h),"concentration at 0.25 h [5, 7] [nM]","concentration at 0.25 h [5, 8] [nM]","concentration at 0.5 h [5, 7] [nM]","concentration at 0.5 h [5, 8] [nM]","concentration at 3 h [5, 9] [nM]","concentration at 3 h [5, 10] [nM]","concentration at 0.25 h [5, 11] [nM]","concentration at 0.5 h [5, 11] [nM]",Mouse BHB (%) (Mouse BHB),SMILES,other results
,,,,,,,,,,,,,,,,"Cc1cccc(C#Cc2ccccc2)n1 [MPEP, 2-methyl-6-(phenylethynyl)pyridine]",effect in marble burying model [1]: effective in this model; effect on NMDA receptor activity [2]: directly inhibit the N-methyl-D-aspartate (NMDA) receptor activity; activity at mGluR4 (mGluR4): positive allosteric modulator of mGluR4
,,,,,,,,,,,,,,,,"Cc1nc(C#Cc2cccnc2)cs1 [MTEP, 3-[(2-methyl-1,3-thiazol-4-yl)ethynyl]pyridine]",clearance [3]: efficiently cleared; inhibition of cytochrome P450 1A2 (cytochrome P450 1A2): potent inhibitor of cytochrome P450 1A2
NAM,Predicted high,no efflux,47,205,91.4,,,,,,,,,,,"Cc1cc(Oc2cncnc2)cc(C(=O)Nc2ccc(F)cn2)n1 [drawing 263, N-(5-fluoropyridin-2-yl)-6-methyl-4-(pyrimidin-5-yloxy)picolinamide]",
NAM,Predicted high,no efflux,7,70,98.5,,,,,,,,,,,"Cc1cc(Oc2cncc(F)c2)cc(C(=O)Nc2ccc(F)cn2)n1 [drawing 264, N-(5-fluoropyridin-2-yl)-4-((5-fluoropyridin-3-yl)oxy)-6-methylpicolinamide]",
,,,,,,BLQ,195,15.2,345,26.9,9.2,0.7,33.2,77.4,92.2,Cc1cc(Oc2cncnc2)cc(C(=O)Nc2ccc(F)cn2)n1 [drawing 269],"Plasma Concentration (nM) ([5]; 3 h): BLQ; concentration at 1 h ([5]; brain, 1 h, read-out: Brain Concentration): 9.9 nM; concentration at 1 h ([5]; brain, 1 h, read-out: Free Brain Concentration): 0.8 nM"
,,,,,,BLQ,176,2.6,143,2.1,19.6,0.3,48.3,30.7,98.5,Cc1cc(Oc2cncc(F)c2)cc(C(=O)Nc2ccc(F)cn2)n1 [drawing 270],"Brain Concentration (nM) ([5]; 1 h): BLQ; concentration at 3 h ([5]; plasma, 3 h, read-out: Plasma Concentration): 3.2 nM"
